Data published in ChEMBL document CHEMBL5233241, “A medicinal chemistry perspective of drug repositioning: Recent advances and challenges in drug discovery” (Eur J Med Chem, 2020).
Where a name gives a salt, the structure may show the parent alone.

Columns and labels:
Plasmodium = test: Antimalarial activity against Plasmodium; format: functional, organism-based
[1] = test system: Middle East respiratory syndrome-related coronavirus; test: Antiviral activity against MERS-CoV/KOR/KNIH/002_05_2015 infected in human Huh-7 cells assessed as reduction in virus-induced cytopathic effect incubated for 3 days by CellTiter 96 aqueous one solution cell proliferation assay; format: functional, organism-based; conditions: KOR/KNIH/002_05_2015, Huh-7, 72 h
[2] = Cytotoxicity against human Huh-7 cells; format: toxicity, cell-based
Plasmodium falciparum = test: Antimalarial activity against Plasmodium falciparum W2; format: functional, organism-based
Tyrosinase = target: T1, Tyrosinase (Agaricus bisporus, UniProt O42713); test: Inhibition of mushroom tyrosinase
T1 sequence (O42713 whole entry): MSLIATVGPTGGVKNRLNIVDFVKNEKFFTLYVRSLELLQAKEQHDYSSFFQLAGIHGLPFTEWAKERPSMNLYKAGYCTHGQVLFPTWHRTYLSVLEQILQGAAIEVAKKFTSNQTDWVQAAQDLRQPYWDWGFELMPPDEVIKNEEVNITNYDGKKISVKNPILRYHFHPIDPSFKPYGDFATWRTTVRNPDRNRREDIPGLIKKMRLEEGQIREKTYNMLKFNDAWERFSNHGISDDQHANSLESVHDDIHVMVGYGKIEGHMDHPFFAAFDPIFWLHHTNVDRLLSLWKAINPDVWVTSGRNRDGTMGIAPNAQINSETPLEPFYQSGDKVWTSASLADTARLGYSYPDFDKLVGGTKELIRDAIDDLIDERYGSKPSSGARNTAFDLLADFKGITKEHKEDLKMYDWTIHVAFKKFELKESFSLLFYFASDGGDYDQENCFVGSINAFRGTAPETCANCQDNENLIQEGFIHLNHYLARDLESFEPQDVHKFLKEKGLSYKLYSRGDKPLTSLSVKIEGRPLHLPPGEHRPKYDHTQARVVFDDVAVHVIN

[3] = Inhibition of melanin production in mouse B16 cells assessed as reduction in melanin content at up to 20 uM relative to control; format: functional
Mus musculus [4] = test: Anti-alzheimer activity against young APP/PS1 mouse model assessed as reduction in amyloid beta (1 to 40 residues) level at 100 mg/kg, po administered daily and measured for 14 days; format: functional; parameters: scale not given: the % may be the effect or the level left; conditions: time 14 day
Mus musculus [5] = test: Anti-alzheimer activity against old APP/PS1 mouse model assessed as reduction in amyloid beta (1 to 40 residues) level at 100 mg/kg, po administered daily and measured for 14 days; format: functional; parameters: scale not given: the % may be the effect or the level left; conditions: time 14 day
Mus musculus [6] = test: Anti-alzheimer activity against young APP/PS1 mouse model assessed as reduction in amyloid beta (1 to 42 residues) level at 100 mg/kg, po administered daily and measured for 14 days; format: functional; parameters: scale not given: the % may be the effect or the level left; conditions: time 14 day
Mus musculus [7] = test: Anti-alzheimer activity against old APP/PS1 mouse model assessed as reduction in amyloid beta (1 to 42 residues) level at 100 mg/kg, po administered daily and measured for 14 days; format: functional; parameters: scale not given: the % may be the effect or the level left; conditions: time 14 day
Mus musculus [8] = test: Anti-alzheimer activity against APP/PS1 mouse model assessed as reduction in insoluble amyloid beta level at 100 mg/kg, po administered daily and measured for 90 days; format: functional; parameters: scale not given: the % may be the effect or the level left; conditions: time 90 day
[9] = test system: Middle East respiratory syndrome-related coronavirus; test: Antiviral activity against MERS-CoV isolate EMC/2012 infected in human Huh-7 cells assessed as reduction in virus-induced cytopathic effect incubated for 2 days by MTS assay; format: functional, organism-based; conditions: EMC/2012, Huh-7, 48 h
SARS-CoV [10] = test: Antiviral activity against SARS-CoV isolate Frankfurt-1 infected in Vero E6 cells assessed as reduction in virus-induced cytopathic effect incubated for 3 days by MTS assay; format: functional, organism-based; conditions: Severe acute respiratory syndrome-related coronavirus, Frankfurt-1, Vero C1008, 72 h
Human coronavirus 229E [11] = test: Antiviral activity against hCoV-229E expressing GFP infected in human Huh-7 cells assessed as reduction in virus-induced cytopathic effect incubated for 24 hrs by MTS assay; format: functional, organism-based; conditions: Huh-7, 24 h
[12] = Inhibition of Wnt signalling in HEK293T cells; format: cell-based; conditions: Homo sapiens, HEK-293T
[13] = Inhibition of Wnt signalling in human BT-20 cells; format: cell-based
Mus musculus [14] = test: Anti-alzheimer activity against APP/PSEN1 transgenic mouse model assessed as fold reduction in amyloid beta plaques at 10 mg/kg administered intranasally every other day for 2 months; format: functional; conditions: route nas, 1460 h
[15] = Cytotoxicity against human COV318 cells incubated for 120 hrs by SRB assay; format: functional, cell-based; conditions: COV318, 120 h
[16] = Cytotoxicity against human COV362 cells incubated for 120 hrs by SRB assay; format: functional, cell-based; conditions: COV362, 120 h
OVCAR-3 = test: Cytotoxicity against human OVCAR-3 cells incubated for 72 hrs by SRB assay; format: functional, cell-based; conditions: OVCAR-3, 72 h
OVCAR-4 = test: Cytotoxicity against human OVCAR-4 cells incubated for 72 hrs by SRB assay; format: functional, cell-based; conditions: OVCAR-4, 72 h
[17] = Cytotoxicity against human OVSAHO cells incubated for 72 hrs by SRB assay; format: functional, cell-based
Dengue virus = test: Antiviral activity against DENV assessed as inhibition of viral replication relative to control; format: functional
SARS-CoV [18] = test: Antiviral activity against SARS-CoV; format: functional, organism-based; conditions: Severe acute respiratory syndrome-related coronavirus
Human coronavirus 229E [19] = test: Antiviral activity against hCoV-229E; format: functional, organism-based
B16-F10 = test: Inhibition of melanin production in mouse B16-F10 cells assessed as reduction in melanin content at 50 uM relative to control; format: functional

CCCc1nc2c(C)cc(-c3nc4ccccc4n3C)cc2n1Cc1ccc(-c2ccccc2C(=O)O)cc1
IC50 (Plasmodium): 0.025 µM

COc1ccc(C2=NC(c3ccc(Cl)cc3)C(c3ccc(Cl)cc3)N2C(=O)N2CCNC(=O)C2)c(OC(C)C)c1 (stereo unspecified)
EC50 [1]: 36.9 µM | CC50 [2]: 26.8 µM

CCN(CC)Cc1cc(Nc2ccnc3cc(Cl)ccc23)ccc1O
EC50 [1]: 2.1 µM

COc1ccc(-c2nc(-c3cc(C(F)(F)F)cc(C(F)(F)F)c3)n(Cc3ccc(C(N)=O)cc3)c2-c2ccc(OC)cc2)cc1
EC50 (Plasmodium falciparum): 4.5 µM

COc1ccc2[nH]c([S@@+]([O-])Cc3ncc(C)c(OC)c3C)nc2c1
IC50 (Plasmodium): 0.29 µM

N=C(N)c1ccc(OCCCCCOc2ccc(C(=N)N)cc2)cc1
IC50 (Plasmodium): < 0.5 µM

CC(=O)c1ccc2c(c1)N(CCCN1CCN(CCO)CC1)c1ccccc1S2 [ACETOPHENAZINE]
EC50 [1]: 11.2 µM | CC50 [2]: 23.6 µM

N=C(N)N/N=C1C=C/C(=N\NC(N)=S)C=C\1 [AMBAZONE]
IC50 (Tyrosinase): 15 µM | inhibition (INH) [3]: 20%

CC(=O)Nc1ccc(/C=N/NC(N)=S)cc1 [AMITHIOZONE]
IC50 (Tyrosinase): 14 µM

Cn1cnc([N+](=O)[O-])c1Sc1ncnc2nc[nH]c12 [AZATHIOPRINE]
Ki (Tyrosinase): > 1000 µM

C=C(c1ccc(C(=O)O)cc1)c1cc2c(cc1C)C(C)(C)CCC2(C)C [BEXAROTENE]
Activity (Mus musculus [4]): 25% | Activity (Mus musculus [5]): 25% | Activity (Mus musculus [6]): 25% | Activity (Mus musculus [7]): 25% | Activity (Mus musculus [8]): 30%

CCOC(=O)n1ccn(C)c1=S [CARBIMAZOLE]
IC50 (Tyrosinase): 186 µM

CCN(CC)CCCC(C)Nc1ccnc2cc(Cl)ccc12 (stereo unspecified) [CHLOROQUINE]
EC50 [9]: 3 µM | EC50 (SARS-CoV [10]): 4.1 µM

CN(C)CCCN1c2ccccc2Sc2ccc(Cl)cc21 [CHLORPROMAZINE]
EC50 [9]: 4.9 µM | EC50 (SARS-CoV [10]): 8.8 µM | EC50 (Human coronavirus 229E [11]): 2.5 µM

CN1CCC[C@@H]1CCO[C@](C)(c1ccccc1)c1ccc(Cl)cc1 [CLEMASTINE FUMARATE]
IC50 (Plasmodium): 2.2 µM

CC(C)/N=c1\cc2n(-c3ccc(Cl)cc3)c3ccccc3nc-2cc1Nc1ccc(Cl)cc1 [CLOFAZIMINE]
IC50 [12]: 6 µM | IC50 [13]: 7 µM

C/C=C/C[C@@H](C)[C@@H](O)[C@H]1C(=O)N[C@@H](CC)C(=O)N(C)CC(=O)N(C)[C@@H](CC(C)C)C(=O)N[C@@H](C(C)C)C(=O)N(C)[C@@H](CC(C)C)C(=O)N[C@@H](C)C(=O)N[C@H](C)C(=O)N(C)[C@@H](CC(C)C)C(=O)N(C)[C@@H](CC(C)C)C(=O)N(C)[C@@H](C(C)C)C(=O)N1C [CYCLOSPORINE]
IC50 (Plasmodium): 1.7 µM

CN(C)CC/C=C1\c2ccccc2CSc2ccccc21 [DOTHIEPIN HYDROCHLORIDE]
EC50 [1]: 3.4 µM | CC50 [2]: 28.9 µM

CCN(CC)CCOc1ccc(/C(=C(/Cl)c2ccccc2)c2ccccc2)cc1 [ENCLOMIPHENE CITRATE]
IC50 (Plasmodium): 0.22 µM

OCCOCCN1CCN(C(c2ccccc2)c2ccc(Cl)cc2)CC1 (stereo unspecified) [HYDROXYZINE]
EC50 [1]: 14.4 µM | CC50 [2]: > 50 µM

COc1ccc2c(c1)N(C[C@H](C)CN(C)C)c1ccccc1S2 [LEVOMEPROMAZINE]
EC50 [1]: 2.5 µM | CC50 [2]: 24.5 µM

CN(C)C(=O)C(CCN1CCC(O)(c2ccc(Cl)cc2)CC1)(c1ccccc1)c1ccccc1 [LOPERAMIDE]
EC50 [9]: 4.8 µM | EC50 (SARS-CoV [10]): 5.9 µM | EC50 (Human coronavirus 229E [11]): 4 µM

Cc1cccc(C)c1OCC(=O)N[C@@H](Cc1ccccc1)[C@@H](O)C[C@H](Cc1ccccc1)NC(=O)[C@H](C(C)C)N1CCCNC1=O [LOPINAVIR]
EC50 [9]: 8 µM

CCCCc1nc(Cl)c(CO)n1Cc1ccc(-c2ccccc2-c2nnn[nH]2)cc1 [LOSARTAN]
fold change (FC) (Mus musculus [14]): 3.7

Sc1ncnc2nc[nH]c12 [MERCAPTOPURINE ANHYDROUS]
Ki (Tyrosinase): 16 µM

Cn1cc[nH]c1=S [METHIMAZOLE]
IC50 (Tyrosinase): 114 µM

Cc1cc(=O)[nH]c(=S)[nH]1 [METHYLTHIOURACIL]
IC50 (Tyrosinase): 142 µM

COc1ccc2[nH]c([S+]([O-])Cc3ncc(C)c(OC)c3C)nc2c1 (stereo unspecified) [OMEPRAZOLE]
IC50 (Plasmodium): < 1 µM

C[C@]12C=CC(=O)C=C1CC[C@@H]1[C@@H]2[C@@H](O)C[C@@]2(C)[C@H]1CC[C@]2(O)C(=O)CO [PREDNISOLONE]
IC50 [15]: 1.1 µM | IC50 [16]: 1.1 µM | IC50 (OVCAR-3): 1.1 µM | IC50 (OVCAR-4): 1.1 µM | IC50 [17]: 1.1 µM

CCCc1cc(=O)[nH]c(=S)[nH]1 [PROPYLTHIOURACIL]
IC50 (Tyrosinase): 170 µM

C=C[C@H]1CN2CC[C@H]1C[C@H]2[C@H](O)c1ccnc2ccc(OC)cc12 [QUININE]
inhibition (INH) (Dengue virus): 80%

O=C(c1ccc(OCCN2CCCCC2)cc1)c1c(-c2ccc(O)cc2)sc2cc(O)ccc12 [RALOXIFENE HYDROCHLORIDE]
IC50 (Plasmodium): < 0.5 µM

CN1CCN(CCOc2cc(OC3CCOCC3)c3c(Nc4c(Cl)ccc5c4OCO5)ncnc3c2)CC1 [SARACATINIB]
CC50 [2]: > 50 µM | EC50 (SARS-CoV [18]): 2.4 µM | EC50 (Human coronavirus 229E [19]): 5.1 µM

CN1CCN(c2nc(C3=C(c4c[nH]c5ccccc45)C(=O)NC3=O)c3ccccc3n2)CC1 [SOTRASTAURIN]
EC50 [1]: 9.7 µM | CC50 [2]: > 50 µM

Nc1nc2nc[nH]c2c(=S)[nH]1 [THIOGUANINE]
Ki (Tyrosinase): 52 µM | inhibition at 50 µM (B16-F10): 57%

OC[C@H]1O[C@@H](n2cnc3c(S)ncnc32)[C@H](O)[C@@H]1O [THIOINOSINE]
Ki (Tyrosinase): 8 µM

O=c1cc[nH]c(=S)[nH]1 [THIOURACIL]
IC50 (Tyrosinase): 128 µM
